Legend:
[1] = system: two human HCC cell lines (HEP3B and SNU475); assay: Protein expression by western blotting/confocal microscopy, two human HCC cell lines; assay type: cell-based; conditions: two Human HCC cells exposed to digoxin
Description: (§1) In-vitro studies: cell lines and cell culture. Human HCC cell lines (HEP3B and SNU475 from ATCC, Cambridge, Mass.) were checked regularly for Mycoplasma contamination using RT-PCR kit while growing in culture with high glucose DMEM media supplemented with 10% FBS and 1% Penicillin/Streptomycin (HEP3), or with RPMI 1640 media supplemented with 10% heat inactivated FBS and 1% Penicillin/Streptomycin (SNU475) in 37° C. humidified incubator in presence of CO2 at 5%.
Confocal microscopy assessment on Immuno-stained cells/liver tissue. For in vitro studies, immunocytochemistry was performed on both human HCC cell lines as previously described. Briefly, the treated for 4 hours cells and the untreated cells were plated on glass coverslips and allowed to reach 70% confluency. […] Next day, slides were incubated with secondary antibodies (Alexa Fluor 488 or 549) and mounted with Vectashield mounting media on slides containing DAPI (Vector Laboratories, Inc., H-1800).
Western Blotting. […] Blocked membranes were incubated with the specific primary/secondary antibodies for protein signals to be detected by the Pierce ECL kit (Thermo Fisher Scientific, Waltham, Mass.), and quantified using ImageJ software.

[2] = system: two human HCC cell lines (HEP3B and SNU475); assay: MTT cell proliferation assay, two human HCC cell lines; assay type: cell-based; conditions: PI3K/Akt pathway inhibitors on two human HCC cell lines
Description: as §1
MTT Cell proliferation assay was performed by plating 5000 cells/well in 6 wells (per condition) of 96 well plates and allowed to adhere for 24 hours, when media was replaced with media±treatment agent for another 24 hours to finally assess cell proliferation according to the manufacturer's instructions (MTT assay, from #ATCC® 30-1010K, Cambridge, Mass.). Digoxin was dissolved in serum free media before addition to cells at designated concentrations.

## C[C@H]1O[C@@H](O[C@H]2[C@@H](O)C[C@H](O[C@H]3[C@@H](O)C[C@H](O[C@H]4CC[C@@]5(C)[C@H](CC[C@@H]6[C@@H]5C[C@@H](O)[C@]5(C)[C@@H](C7=CC(=O)OC7)CC[C@]65O)C4)O[C@@H]3C)O[C@@H]2C)C[C@H](O)[C@@H]1O [digoxin]
[1]
  expression of survivin: increased the expression of survivin

## N#C/C(=C/c1ccc(O)c(O)c1)C(=O)NCc1ccccc1 [AG490]
[2]
  cell proliferation (MTT assay): inhibited cell proliferation

## CC(C)(C)n1nc(-c2ccc(Cl)cc2)c2c(N)ncnc21 [PP2]
[2]
  cell proliferation (MTT assay): inhibited cell proliferation

Reference: patent US11958915B2, “Methods for treatment and diagnosis of non-alcoholic steatohepatitis and/or hepatocellular carcinoma” (Marshall University Research Corporation, priority 2020, dated 2024)
